In patent US6737383B1, “Herbicidal oxadiazolidines” (priority 1999, dated 2004):

Experiments:
[1] = system: crabgrass; assay: Test B pre/postemergence crabgrass; assay type: in vivo, Digitaria sanguinalis; conditions: for Crabgrass plant response rating: scale of 0 to 10 where 0 is no effect and 10 is complete control
Method in brief: (§1)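 Response is a visual 0-to-10 score relative to untreated plants, where 0 means no effect and 10 means complete control, taken twelve to sixteen days after application. Treatments went onto soil at planting and onto foliage of 1- to 4-leaf plants, using a surfactant-containing non-phytotoxic solvent.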

[2] = system: Italian ryegrass; assay: Test E Italian ryegrass; assay type: in vivo, Lolium multiflorum; conditions: Preemergence
[3] = system: giant foxtail; assay: Test B pre/postemergence giant foxtail; assay type: in vivo, Setaria faberii; conditions: for Giant foxtail plant response rating: scale of 0 to 10 where 0 is no effect and 10 is complete control
Method in brief: as §1

[4] = system: wild oat; assay: Test E wild oat; assay type: in vivo, Avena fatua; conditions: Preemergence
[5] = system: soybean; assay: Test B pre/postemergence soybean; assay type: in vivo, Glycine max; conditions: for Soybean plant response rating: scale of 0 to 10 where 0 is no effect and 10 is complete control
Method in brief: as §1

[6] = system: winter barley; assay: Test E winter barley; assay type: in vivo, Hordeum vulgare; conditions: Preemergence
[7] = system: green foxtail; assay: Test E green foxtail; assay type: in vivo, Setaria viridis; conditions: Preemergence
[8] = system: blackgrass; assay: Test E blackgrass; assay type: in vivo, Alopecurus myosuroides; conditions: Preemergence
[9] = system: sugar beet; assay: Test B pre/postemergence sugar beet; assay type: in vivo, Beta vulgaris; conditions: for Sugarbeets plant response rating: scale of 0 to 10 where 0 is no effect and 10 is complete control
Method in brief: as §1

[10] = system: winter wheat; assay: Test E winter wheat; assay type: in vivo, Triticum aestivum; conditions: Postemergence, 0 to 100 scale, 0 is no effect, 100 is complete control
Method in brief: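 Greenhouse test: for postemergence, foliar application at 1- to 4-leaf stage; compound in non-phytotoxic solvent with surfactant. Rating is visual, relative to untreated controls, about 21 to 28 days after treatment.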

[11] = system: winter wheat; assay: Test E winter wheat; assay type: in vivo, Triticum aestivum; conditions: Preemergence
[12] = Postemergence, Rate 125 g/ha, scale 0 to 10, 0 is no effect, 10 is complete control
[13] = Postemergence, Rate 250 g/ha, scale 0 to 10, 0 is no effect, 10 is complete control
[14] = Preemergence, Rate 62 g/ha, scale 0 to 10 (0 no effect, 10 complete control)
[15] = Rate 500 g/ha, Postemergence, scale 0 to 10, 0 no effect, 10 complete control
[16] = Rate 125 g/ha, 0 to 100 scale (0 no effect, 100 complete control)
[17] = Rate 500 g/ha, 0 to 100 scale (0 no effect, 100 complete control)

SMILES: CC1CC1n1c(=O)on(C(=O)N(c2ccc(F)cc2F)C(C)C)c1=O (stereo not drawn) [Compound 372]
- Plant response rating, Crabgrass [1, 12]: 2
- Plant response rating, Crabgrass [1, 13]: 8
- Plant response rating, Crabgrass [1, 14]: 8
- Crabgrass plant response rating (0 to 10 scale) ([1]; Preemergence, Rate 125 g/ha): 9
- Crabgrass plant response rating ([1]; Preemergence, Rate 250 g/ha): 10
- Crabgrass plant response rating ([1]; Preemergence, Rate 500 g/ha): 10
- Crabgrass plant response rating ([1]; Rate 62 g/ha, Postemergence): 2
- Plant response rating, Crabgrass [1, 15]: 9
- Plant response rating, I. Ryegrass [2, 16]: 60
- Plant response rating, I. Ryegrass ([2]; Rate 250 g/ha, 0 to 100 scale): 70
- Plant response rating, I. Ryegrass [2, 17]: 85
- Plant response rating, Giant foxtail [3, 12]: 9
- Plant response rating, Giant foxtail [3, 13]: 9
- Plant response rating, Giant foxtail [3, 14]: 10
- Giant foxtail plant response rating (0 to 10 scale) ([3]; Preemergence, Rate 125 g/ha): 10
- Giant foxtail plant response rating ([3]; Preemergence, Rate 250 g/ha): 10
- Giant foxtail plant response rating ([3]; Preemergence, Rate 500 g/ha): 10
- Giant foxtail plant response rating ([3]; Rate 62 g/ha, Postemergence): 4
- Plant response rating, Giant foxtail [3, 15]: 9
- Plant response rating, Wild oat [4, 16]: 50
- Plant response rating, Wild oat ([4]; Rate 250 g/ha, 0 to 100 scale): 60
- Plant response rating, Wild oat [4, 17]: 80
- Plant response rating, Soybean [5, 12]: 1
- Plant response rating, Soybean [5, 13]: 2
- Plant response rating, Soybean [5, 14]: 0
- Soybean plant response rating (0 to 10 scale) ([5]; Preemergence, Rate 125 g/ha): 0
- Soybean plant response rating ([5]; Preemergence, Rate 250 g/ha): 0
- Soybean plant response rating ([5]; Preemergence, Rate 500 g/ha): 2
- Soybean plant response rating ([5]; Rate 62 g/ha, Postemergence): 1
- Plant response rating, Soybean [5, 15]: 3
- Plant response rating, Barley (winter) [6, 16]: 60
- Plant response rating, Barley (winter) ([6]; Rate 250 g/ha, 0 to 100 scale, 0 no effect, 100 complete control): 70
- Plant response rating, Barley (winter) [6, 17]: 70
- Plant response rating, Green foxtail [7, 16]: 60
- Plant response rating, Green foxtail ([7]; Rate 250 g/ha, 0 to 100 scale): 60
- Plant response rating, Green foxtail [7, 17]: 100
- Plant response rating, Blackgrass [8, 16]: 70
- Plant response rating, Blackgrass ([8]; Rate 250 g/ha, 0 to 100 scale): 60
- Plant response rating, Blackgrass [8, 17]: 100
- Plant response rating, Sugarbeets [9, 12]: 2
- Plant response rating, Sugarbeets [9, 13]: 2
- Plant response rating, Sugarbeets [9, 14]: 2
- Sugarbeets plant response rating (0 to 10 scale) ([9]; Preemergence, Rate 125 g/ha): 4
- Sugarbeets plant response rating ([9]; Preemergence, Rate 250 g/ha): 10
- Sugarbeets plant response rating ([9]; Preemergence, Rate 500 g/ha): 10
- Sugarbeets plant response rating ([9]; Rate 62 g/ha, Postemergence): 0
- Plant response rating, Sugarbeets [9, 15]: 8
- Plant response rating, Wheat (winter) ([10]; Rate 125 g/ha): 65
- Plant response rating, Wheat (winter) ([10]; Rate 250 g/ha): 70
- Plant response rating, Wheat (winter) ([10]; Rate 500 g/ha): 80
- Plant response rating, Wheat (winter) [11, 16]: 60
- Plant response rating, Wheat (winter) ([11]; Rate 250 g/ha, 0 to 100 scale): 50
- Plant response rating, Wheat (winter) [11, 17]: 70

SMILES: CC(C)N(C(=O)n1oc(=O)n(CC2CCOC2)c1=O)c1ccc(F)cc1 (stereo not drawn) [Compound 375]
- Plant response rating, Crabgrass [1, 12]: 4
- Plant response rating, Crabgrass [1, 13]: 7
- Plant response rating, Crabgrass [1, 14]: 7
- Crabgrass plant response rating (0 to 10 scale) ([1]; Preemergence, Rate 125 g/ha): 8
- Crabgrass plant response rating ([1]; Preemergence, Rate 250 g/ha): 10
- Crabgrass plant response rating ([1]; Preemergence, Rate 500 g/ha): 10
- Crabgrass plant response rating ([1]; Rate 62 g/ha, Postemergence): 0
- Plant response rating, Crabgrass [1, 15]: 9
- Plant response rating, I. Ryegrass [2, 16]: 50
- Plant response rating, I. Ryegrass ([2]; Rate 250 g/ha, 0 to 100 scale): 70
- Plant response rating, I. Ryegrass [2, 17]: 65
- Plant response rating, Giant foxtail [3, 12]: 6
- Plant response rating, Giant foxtail [3, 13]: 8
- Plant response rating, Giant foxtail [3, 14]: 10
- Giant foxtail plant response rating (0 to 10 scale) ([3]; Preemergence, Rate 125 g/ha): 10
- Giant foxtail plant response rating ([3]; Preemergence, Rate 250 g/ha): 10
- Giant foxtail plant response rating ([3]; Preemergence, Rate 500 g/ha): 10
- Giant foxtail plant response rating ([3]; Rate 62 g/ha, Postemergence): 0
- Plant response rating, Giant foxtail [3, 15]: 9
- Plant response rating, Wild oat [4, 16]: 55
- Plant response rating, Wild oat ([4]; Rate 250 g/ha, 0 to 100 scale): 60
- Plant response rating, Wild oat [4, 17]: 70
- Plant response rating, Soybean [5, 12]: 1
- Plant response rating, Soybean [5, 13]: 1
- Plant response rating, Soybean [5, 14]: 0
- Soybean plant response rating (0 to 10 scale) ([5]; Preemergence, Rate 125 g/ha): 0
- Soybean plant response rating ([5]; Preemergence, Rate 250 g/ha): 0
- Soybean plant response rating ([5]; Preemergence, Rate 500 g/ha): 0
- Soybean plant response rating ([5]; Rate 62 g/ha, Postemergence): 1
- Plant response rating, Soybean [5, 15]: 2
- Plant response rating, Barley (winter) [6, 16]: 35
- Plant response rating, Barley (winter) [6, 17]: 30
- Plant response rating, Green foxtail [7, 16]: 50
- Plant response rating, Green foxtail ([7]; Rate 250 g/ha, 0 to 100 scale): 60
- Plant response rating, Green foxtail [7, 17]: 70
- Plant response rating, Blackgrass [8, 16]: 20
- Plant response rating, Blackgrass ([8]; Rate 250 g/ha, 0 to 100 scale): 60
- Plant response rating, Blackgrass [8, 17]: 65
- Plant response rating, Sugarbeets [9, 12]: 0
- Plant response rating, Sugarbeets [9, 13]: 0
- Plant response rating, Sugarbeets [9, 14]: 0
- Sugarbeets plant response rating (0 to 10 scale) ([9]; Preemergence, Rate 125 g/ha): 2
- Sugarbeets plant response rating ([9]; Preemergence, Rate 250 g/ha): 4
- Sugarbeets plant response rating ([9]; Preemergence, Rate 500 g/ha): 7
- Sugarbeets plant response rating ([9]; Rate 62 g/ha, Postemergence): 0
- Plant response rating, Sugarbeets [9, 15]: 3
- Plant response rating, Wheat (winter) ([10]; Rate 125 g/ha): 35
- Plant response rating, Wheat (winter) ([10]; Rate 250 g/ha): 35
- Plant response rating, Wheat (winter) ([10]; Rate 500 g/ha): 50
- Plant response rating, Wheat (winter) [11, 16]: 30
- Plant response rating, Wheat (winter) ([11]; Rate 250 g/ha, 0 to 100 scale): 40
- Plant response rating, Wheat (winter) [11, 17]: 50
